Laboratory results from ChEMBL document CHEMBL1201862, “PubChem BioAssay data set” (2004).
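Step 1: Grow cells in 96-well plates. Step 2: Expose to compound for 48 hours at 5 concentrations. Step 3: Interpolate endpoints linearly; if unreached, use highest concentration. GI50 marks 50% less growth.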 Active and inactive are the calls of the source. No stated cut-off is given here; in the data, active = GI50 up to about 1.1 µM and inactive = higher.

What was measured:
Test in all cases: NCI-60 cell line screen, 48 h
UACC-257 = system: UACC-257
SNB-19 = system: SNB-19
MDA-MB-231 = system: MDA-MB-231
DU-145 = system: DU-145
EKVX = system: EKVX
SR = system: SR
BT-549 = system: BT-549
NCI-H522 = system: NCI-H522
TK-10 = system: TK-10
NCI/ADR-RES = system: NCI/ADR-RES
NCI-H460 = system: NCI-H460
M14 = system: M14
SN12C = system: SN12C
OVCAR-5 = system: OVCAR-5
OVCAR-3 = system: OVCAR-3
SNB-75 = system: SNB-75
UACC-62 = system: UACC-62
PC-3 = system: PC-3
SF-268 = system: SF-268
MDA-N = system: MDA-N
NCI-H23 = system: NCI-H23
Hs-578T = system: Hs-578T
RXF 393 = system: RXF 393
HCT-116 = system: HCT-116
SK-OV-3 = system: SK-OV-3
A498 = system: A498
SK-MEL-28 = system: SK-MEL-28
OVCAR-8 = system: OVCAR-8
SF-295 = system: SF-295
SK-MEL-2 = system: SK-MEL-2
HCT-15 = system: HCT-15
IGROV-1 = system: IGROV-1
HL-60 = system: HL-60
HT-29 = system: HT-29
Malme-3M = system: Malme-3M
T47D = system: T47D
SK-MEL-5 = system: SK-MEL-5
LOX IMVI = system: LOX IMVI
NCI-H226 = system: NCI-H226
HOP-92 = system: HOP-92
MOLT-4 = system: MOLT-4
COLO 205 = system: COLO 205
CCRF-CEM = system: CCRF-CEM
U-251 = system: U-251
MCF7 = system: MCF7
SW-620 = system: SW-620
K562 = system: K562
ACHN = system: ACHN
RPMI-8226 = system: RPMI-8226
A549 = system: A549
SF-539 = system: SF-539
HOP-62 = system: HOP-62
786-0 = system: 786-0
UO-31 = system: UO-31
OVCAR-4 = system: OVCAR-4
CAKI-1 = system: CAKI-1
MDA-MB-435 = system: MDA-MB-435
KM12 = system: KM12
HCC 2998 = system: HCC 2998

Measured: GI50

NCOC(=O)Cc1ccc(Br)cc1
> 100 µM: HCT-15
inactive: UACC-257 > 100 µM | SNB-19 > 100 µM | MDA-MB-231 > 100 µM | DU-145 > 100 µM | EKVX > 100 µM | BT-549 > 100 µM | NCI-H522 > 100 µM | TK-10 > 100 µM | NCI/ADR-RES > 100 µM | NCI-H460 > 100 µM | M14 > 100 µM | SN12C > 100 µM | OVCAR-5 > 100 µM | OVCAR-3 > 100 µM | SNB-75 > 100 µM | UACC-62 > 100 µM | PC-3 > 100 µM | SF-268 > 100 µM | MDA-N > 100 µM | NCI-H23 > 100 µM | Hs-578T > 100 µM | RXF 393 > 100 µM | HCT-116 > 100 µM | SK-OV-3 > 100 µM | A498 > 100 µM | SK-MEL-28 > 100 µM | OVCAR-8 > 100 µM | SF-295 > 100 µM | SK-MEL-2 > 100 µM | IGROV-1 > 100 µM | HL-60 42.3 µM | HT-29 > 100 µM | Malme-3M > 100 µM | T47D > 100 µM | SK-MEL-5 > 100 µM | LOX IMVI > 100 µM | NCI-H226 > 100 µM | HOP-92 > 100 µM | MOLT-4 17.4 µM | COLO 205 > 100 µM | CCRF-CEM 80 µM | U-251 > 100 µM | MCF7 > 100 µM | SW-620 > 100 µM | K562 > 100 µM | ACHN > 100 µM | RPMI-8226 > 100 µM | A549 > 100 µM | SF-539 > 100 µM | HOP-62 > 100 µM | 786-0 > 100 µM | UO-31 > 100 µM
active: SR 0.383 µM

Cc1nc(O)nc(N/N=C/c2ccc(Cl)cc2)c1C(=O)NC(C)(CO)CO
inactive: UACC-257 > 100 µM | SNB-19 > 100 µM | OVCAR-4 > 100 µM | DU-145 > 100 µM | CAKI-1 > 100 µM | EKVX > 100 µM | SR > 100 µM | BT-549 > 100 µM | TK-10 > 100 µM | NCI/ADR-RES > 100 µM | NCI-H460 > 100 µM | M14 > 100 µM | SN12C > 100 µM | OVCAR-5 > 100 µM | OVCAR-3 > 100 µM | SNB-75 > 100 µM | UACC-62 > 100 µM | PC-3 > 100 µM | SF-268 > 100 µM | MDA-N > 100 µM | NCI-H23 > 100 µM | Hs-578T > 100 µM | RXF 393 > 100 µM | HCT-116 > 100 µM | SK-OV-3 > 100 µM | A498 > 100 µM | SK-MEL-28 > 100 µM | OVCAR-8 > 100 µM | SF-295 > 100 µM | SK-MEL-2 > 100 µM | IGROV-1 > 100 µM | HL-60 > 100 µM | HT-29 > 100 µM | Malme-3M > 100 µM | T47D 60.7 µM | SK-MEL-5 > 100 µM | LOX IMVI > 100 µM | NCI-H226 > 100 µM | HOP-92 > 100 µM | MOLT-4 > 100 µM | COLO 205 > 100 µM | CCRF-CEM > 100 µM | U-251 > 100 µM | MCF7 > 100 µM | SW-620 > 100 µM | K562 > 100 µM | MDA-MB-435 > 100 µM | ACHN > 100 µM | RPMI-8226 > 100 µM | KM12 > 100 µM | HOP-62 > 100 µM | HCC 2998 > 100 µM | UO-31 > 100 µM
> 100 µM: HCT-15
